pIC50: −log10 of the molar value. Like-named read-outs stand apart in the source and are kept apart here.
What was measured:
Type in all cases: cell-based
Ls174T cells = experiment: In vitro potency (CellTiter-Glo, 96 h), Ls174T; details: Homo sapiens, LS174T
Procedure, shortened: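 Medium: RPMI 1640 + 20% FBS. Pre-seeding: 24 h. Treatment: ADC or CPT free drug serial dilutions, 96 h, 37 °C. Read-out: luminescence; IC50 in ng/mL and nmol/L.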

melanoma cells (A2058) = experiment: In vitro potency (CellTiter-Glo, 96 h), A2058; details: Homo sapiens, A2058, 96 h
Method: (§1) In vitro potency was assessed on multiple cancer cell lines. All cell lines were authenticated by STR profiling at IDEXX Bioresearch and cultured for no more than 2 months after resuscitation. Cells cultured in log-phase growth were seeded for 24 hours in 96-well plates containing […] RPMI 1640 supplemented with 20% FBS. Serial dilutions of antibody-drug conjugates in cell culture media were prepared at 4× working concentrations, and 50 μL of each dilution was added to the 96-well plates. Following addition of test articles, cells were incubated with test articles for 4 days at 37 0° C. After 96 hours, growth inhibition was assessed by CellTiterGlo® (Promega, Madison, WI) and luminescence was measured on a plate reader.
(§2) In Table 7, IC50 values for ADCs are given in ng/mL. Cell viability was determined by CellTiter-Glo staining after 96 h exposure to ADC. ND=Not Determined. Ag2 is an antibody targeting a ubiquitous and readily internalizable antigen. The cancer cell lines tested are renal carcinoma cells (786-0), melanoma cells (A2058), pancreatic cancer cells (BxPC3), non-small-cell lung cancer cells (Calu1), anaplastic large cell lymphoma cells (DEL, DELBVR, Karpas299), Hodgkin's lymphoma cells (L540cy), (Ls174T), breast cancer cells (MDA-MB-231), acute myeloid leukemia cells (MOLM-13), and B-lymphocyte cancer cells (SU-DHL4).
as §1, with “FBS.” for “FBS. Serial dilutions of antibody-drug conjugates in cell culture media were prepared at 4× working concentrations, and 50 μL of each dilution was added to the 96-well plates.”
(§3) Cell viability was determined by CellTiter-Glo staining after 96 h exposure to the compound. ND=Not Determined. The cancer cell lines tested are renal carcinoma cells (786-0), melanoma cells (A2058), pancreatic cancer cells (BxPC3), non-small-cell lung cancer cells (Calu1), anaplastic large cell lymphoma cells (DEL, DELBVR, Karpas299), Hodgkin's lymphoma cells (L540cy), (Ls 174T), breast cancer cells (MDA-MB-231), acute myeloid leukemia cells (MOLM-13), B-lymphocyte cancer cells (SU-DHL4), multiple myeloma cells (MM.1R), (U266), and melanoma cells (SK-MEL-5).
as §1, with “37°” for “37 0°”
(§4) In the following Tables IC50 values for ADCs and CPT free drugs are given in ng/mL and nmol/L concentrations. Cell viability was determined by CellTiter-Glo staining after 96 h exposure to ADC or CPT free drug.
(§5) Cell viability was determined by CellTiter-Glo staining after 96 h exposure to ADC. ND=Not Determined.

[1] = tested on: pancreatic cancer cells (BxPC3); experiment: In vitro potency (CellTiter-Glo, 96 h), BxPC3; details: Homo sapiens, BXPC-3, 96 h
Procedure, shortened: (§6)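 Log-phase cells were seeded for 24 h in RPMI 1640 with 20% FBS, then exposed to serially diluted antibody-drug conjugates or free camptothecin drug for 4 days at 37 °C. Growth inhibition was read by luminescence, and IC50 values were reported in ng/mL and nmol/L.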

[2] = tested on: anaplastic large cell lymphoma cells (DELBVR); experiment: In vitro potency (CellTiter-Glo, 96 h), DELBVR
Procedure, shortened: (§7)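 Cells in log-phase growth seeded 24 h in RPMI 1640 with 20% FBS, then exposed to serially diluted ADC or CPT free drug for 96 h at 37 °C. Growth inhibition read by CellTiter-Glo luminescence; IC50 reported in ng/mL or nmol/L.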

[3] = tested on: B-lymphocyte cancer cells (SU-DHL4); experiment: In vitro potency (CellTiter-Glo, 96 h), SU-DHL-4; details: Homo sapiens, SU-DHL-4, 96 h
Procedure, shortened: as §7

[4] = tested on: breast cancer cells (MDA-MB-231); experiment: In vitro potency (CellTiter-Glo, 96 h), MDA-MB-231; details: Homo sapiens, MDA-MB-231, 96 h
Procedure, shortened: as §7

[5] = tested on: anaplastic large cell lymphoma cells (Karpas299); experiment: In vitro potency (CellTiter-Glo, 96 h), Karpas299; details: Homo sapiens, KARPAS-299, 96 h
Procedure, shortened: as §7

[6] = tested on: Hodgkin's lymphoma cells (L540cy); experiment: In vitro potency (CellTiter-Glo, 96 h), L540cy
Procedure, shortened: as §7

[7] = tested on: non-small-cell lung cancer cells (Calu1); experiment: In vitro potency (CellTiter-Glo, 96 h), Calu1; details: Homo sapiens, Calu-1, 96 h
Method: as §1, §2
as §1, with “FBS.” for “FBS. Serial dilutions of antibody-drug conjugates in cell culture media were prepared at 4× working concentrations, and 50 μL of each dilution was added to the 96-well plates.”
as §3
as §1, with “37°” for “37 0°”
as §4, §5

[8] = tested on: renal carcinoma cells (786-O); experiment: In vitro potency (CellTiter-Glo, 96 h), 786-O; details: Homo sapiens, 786-0, 96 h
Procedure, shortened: as §7

[9] = tested on: acute myeloid leukemia cells (MOLM-13); experiment: In vitro potency (CellTiter-Glo, 96 h), MOLM-13; details: Homo sapiens, MOLM-13, 96 h
Procedure, shortened: as §6

[10] = tested on: anaplastic large cell lymphoma cells (DEL); experiment: In vitro potency (CellTiter-Glo, 96 h), DEL
Procedure, shortened: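 Growth inhibition after 96 h at 37 °C with test article, measured by luminescence; cells in RPMI 1640, 20% FBS.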

[11] = read-out: IC50 (nmol/L) BxPC3, CPT free drugs, Table 24, CellTiter-Glo after 96 h exposure
[12] = read-out: IC50 (nmol/L) DELBVR, CPT free drugs, Table 24, CellTiter-Glo after 96 h exposure
[13] = read-out: IC50 (nmol/L) SU-DHL-4, CPT free drugs, Table 24, CellTiter-Glo after 96 h exposure
[14] = read-out: IC50 (nmol/L) MDAMB231, CPT free drugs, Table 24, CellTiter-Glo after 96 h exposure
[15] = read-out: IC50 (nmol/L) Karpas299, CPT free drugs, Table 24, CellTiter-Glo after 96 h exposure
[16] = read-out: IC50 (nmol/L) L540cy, CPT free drugs, Table 24, CellTiter-Glo after 96 h exposure
[17] = read-out: IC50 (nmol/L) 786-O, CPT free drugs, Table 24, CellTiter-Glo after 96 h exposure
[18] = read-out: IC50 (nmol/L) MOLM-13, CPT free drugs, Table 24, CellTiter-Glo after 96 h exposure
[19] = read-out: IC50 (nmol/L) DEL, CPT free drugs, Table 24, CellTiter-Glo after 96 h exposure
[20] = CPT free drugs, Table 24, CellTiter-Glo after 96 h exposure, read-out: IC50 (nmol/L) Ls174T
[21] = CPT free drugs, Table 24, CellTiter-Glo after 96 h exposure, read-out: IC50 (nmol/L) A2058
[22] = CPT free drugs, Table 24, CellTiter-Glo after 96 h exposure, read-out: IC50 (nmol/L) BxPC3
[23] = CPT free drugs, Table 24, CellTiter-Glo after 96 h exposure, read-out: IC50 (nmol/L) DELBVR
[24] = CPT free drugs, Table 24, CellTiter-Glo after 96 h exposure, read-out: IC50 (nmol/L) SU-DHL-4
[25] = CPT free drugs, Table 24, CellTiter-Glo after 96 h exposure, read-out: IC50 (nmol/L) MDAMB231
[26] = CPT free drugs, Table 24, CellTiter-Glo after 96 h exposure, read-out: IC50 (nmol/L) Karpas299
[27] = CPT free drugs, Table 24, CellTiter-Glo after 96 h exposure, read-out: IC50 (nmol/L) L540cy
[28] = CPT free drugs, Table 24, CellTiter-Glo after 96 h exposure, read-out: IC50 (nmol/L) Calu1
[29] = CPT free drugs, Table 24, CellTiter-Glo after 96 h exposure, read-out: IC50 (nmol/L) 786-O
[30] = CPT free drugs, Table 24, CellTiter-Glo after 96 h exposure, read-out: IC50 (nmol/L) MOLM-13
[31] = CPT free drugs, Table 24, CellTiter-Glo after 96 h exposure, read-out: IC50 (nmol/L) DEL

Row | Compound | pIC50 (Ls174T cells; [20]) | pIC50 (melanoma cells (A2058); [21]) | pIC50 [1, 22] | pIC50 [2, 23] | pIC50 [3, 24] | pIC50 [4, 25] | pIC50 [5, 26] | pIC50 [6, 27] | pIC50 [7, 28] | pIC50 [8, 29] | pIC50 [9, 30] | pIC50 [10, 31] | other results
1 | CC[C@@]1(O)C(=O)OCc2c1cc1n(c2=O)Cc2c-1nc1cc3c(cc1c2CN)OCC3 [Compound 2m] | – | – | – | – | – | – | – | – | – | – | – | – | pIC50 (Ls174T cells; 96 h, read-out: IC50 (nmol/L) Ls174T, CPT free drugs, Table 24, CellTiter-Glo after 96 h exposure): 7.77; pIC50 (melanoma cells (A2058); read-out: IC50 (nmol/L) A2058): 7.79; pIC50 [1, 11]: 6.89; pIC50 [2, 12]: 7.85; pIC50 [3, 13]: 7.65; pIC50 [4, 14]: 7.46; pIC50 [5, 15]: 7.24; pIC50 [6, 16]: 7.75; pIC50 ([7]; read-out: IC50 (nmol/L) Calu1): 6.60; pIC50 [8, 17]: 7.26; pIC50 [9, 18]: 7.22; pIC50 [10, 19]: 7.96
2 | CC[C@@]1(O)C(=O)OCc2c1cc1n(c2=O)Cc2c-1nc1cc(C)c(F)cc1c2CN [Compound 2aa] | 6.62 | 6.89 | < 6.00 | 7.06 | 6.64 | < 6.00 | 6.42 | < 6.00 | < 6.00 | 6.58 | < 6.00 | 7.09 | –
3 | CC[C@@]1(O)C(=O)OCc2c1cc1n(c2=O)Cc2c-1nc1ccc(OC)cc1c2CN [Compound 2d] | 8.43 | 8.70 | 7.92 | 9.00 | 8.40 | 8.40 | 8.15 | 8.70 | 7.37 | 8.30 | 7.60 | 9.00 | –
4 | CC[C@@]1(O)C(=O)OCc2c1cc1n(c2=O)Cc2c-1nc1cc3c(c(Br)c1c2CN)OCO3 [Compound 5c] | – | – | – | – | – | – | – | – | – | – | – | – | pIC50 (Ls174T cells; 96 h, read-out: Ls174T IC50, Table 28, CPT free drugs, Ls174T cells, 96 h, CellTiter-Glo): 8.22; pIC50 (melanoma cells (A2058); read-out: A2058 IC50): 8.30; pIC50 ([1]; read-out: BxPC3 IC50, Table 28, CPT free drugs, pancreatic cancer cells BxPC3, 96 h, CellTiter-Glo): 8.10; pIC50 ([3]; read-out: SU-DHL-4 IC50, Table 28, CPT free drugs, B-lymphocyte cancer cells SU-DHL4, 96 h, CellTiter-Glo): 9.30; pIC50 ([4]; read-out: MDAMB231 IC50, Table 28, CPT free drugs, breast cancer cells MDA-MB-231, 96 h, CellTiter-Glo): 8.70; pIC50 ([5]; read-out: Karpas299 IC50, Table 28, CPT free drugs, anaplastic large cell lymphoma cells Karpas299, 96 h, CellTiter-Glo): 9.00; pIC50 ([6]; read-out: L540cy IC50, Table 28, CPT free drugs, Hodgkin's lymphoma cells L540cy, CellTiter-Glo): 9.10; pIC50 ([7]; read-out: Calu1 IC50): 8.40; pIC50 ([8]; read-out: 786-O IC50, Table 28, CPT free drugs, renal carcinoma cells 786-O, 96 h, CellTiter-Glo): 9.00; pIC50 ([9]; read-out: MOLM-13 IC50, Table 28, CPT free drugs, acute myeloid leukemia cells MOLM-13, 96 h, CellTiter-Glo): 8.70; pIC50 ([10]; read-out: DEL IC50, Table 28, CPT free drugs, anaplastic large cell lymphoma cells DEL, CellTiter-Glo): 9.52
5 | CC[C@@]1(O)C(=O)OCc2c1cc1n(c2=O)Cc2c-1nc1ccc3c(c1c2CN)OCCO3 [Compound 2ag] | – | 8.00 | 7.24 | 7.89 | 7.80 | 6.75 | 7.47 | 7.82 | 6.82 | 7.46 | 7.20 | 8.22 | –
6 | CC[C@@]1(O)C(=O)OCc2c1cc1n(c2=O)Cc2c-1nc1cc3c(cc1c2CN)OCCO3 [Compound 2af] | – | – | – | – | – | – | – | – | – | – | – | – | pIC50 (melanoma cells (A2058); read-out: IC50 (nmol/L) A2058): 8.70; pIC50 [1, 11]: 8.15; pIC50 [2, 12]: 9.00; pIC50 [3, 13]: 8.70; pIC50 [4, 14]: 7.41; pIC50 [5, 15]: 8.22; pIC50 [6, 16]: 8.52; pIC50 ([7]; read-out: IC50 (nmol/L) Calu1): 7.24; pIC50 [8, 17]: 8.15; pIC50 [9, 18]: 7.49; pIC50 [10, 19]: 9.00
7 | [2H]C1([2H])Oc2cc3nc4c(c(CN)c3cc2O1)Cn1c-4cc2c(c1=O)COC(=O)[C@]2(O)CC [Compound 2an] | 8.22 | 9.30 | 9.00 | 9.70 | 9.00 | 9.00 | 9.00 | – | 9.00 | 9.00 | 8.40 | 9.70 | –
8 | CC[C@@]1(O)C(=O)OCc2c1cc1n(c2=O)Cc2c-1nc1ccccc1c2CN [Compound 2ae] | – | 8.30 | 7.64 | 8.30 | 8.10 | 6.97 | 7.85 | 8.22 | 7.19 | 7.77 | 6.72 | 8.30 | –

Reference: patent US20240207427A1, “SELECTIVE DRUG RELEASE FROM INTERNALIZED CONJUGATES OF BIOLOGICALLY ACTIVE COMPOUNDS” (priority 2021, published 2024)
